Biological target: T1, His-MpCAPE-PDE (Marchantia polymorpha, UniProt A0A1V1FXL5)
T1 construct: gene CAPE; N-terminal PDE domain 101-479 of 1610-residue MpCAPE; 6xHis and T7 tags (pET28a); E. coli Rosetta2(DE3)pLysS host; partially purified on Ni column
Assay: reverse-phase HPLC of AMP or GMP formed, […] nm
Assay type: biochemical
Conditions: 0.5 mM cGMP, 0.5 mM MgCl2, MnCl2 or FeCl2, Tris-HCl pH 8.0, 37 °C, 20 min; partially purified protein

T1 sequence (A0A1V1FXL5 entry or part of it): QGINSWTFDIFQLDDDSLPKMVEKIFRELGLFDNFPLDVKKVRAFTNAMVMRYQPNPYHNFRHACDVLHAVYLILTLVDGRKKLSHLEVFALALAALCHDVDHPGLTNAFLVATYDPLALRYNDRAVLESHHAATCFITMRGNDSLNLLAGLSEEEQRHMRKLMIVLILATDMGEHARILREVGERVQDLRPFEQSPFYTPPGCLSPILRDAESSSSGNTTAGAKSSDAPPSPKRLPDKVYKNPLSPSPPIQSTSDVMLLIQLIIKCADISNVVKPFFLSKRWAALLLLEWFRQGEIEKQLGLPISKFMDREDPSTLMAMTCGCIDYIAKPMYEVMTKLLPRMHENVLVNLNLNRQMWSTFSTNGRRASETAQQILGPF

Compound: Nc1nc2c(ncn2[C@@H]2O[C@@H]3COP(=O)(O)O[C@H]3[C@H]2O)c(=O)[nH]1 [cGMP]
- reverse-phase HPLC of AMP or GMP formed, 259 nm: The result showed that His-MpCAPE-PDE hydrolyzed both cAMP and cGMP

— publication PMC5159850, “An adenylyl cyclase with a phosphodiesterase domain in basal plants with a motile sperm system” (Scientific Reports, 2016)
